# Key:
# [1] = tested on: ANBL-6 multiple myeloma cells; test: CellTiter-Glo cell viability assay, ANBL-6; assay type: cell-based
# S. aureus particles = test: Whole blood assay, S. aureus particle stimulation; assay type: cell-based, human; conditions: 20 μM, 4 h
# Protocol: Whole blood samples from healthy donors were pre-treated with 20 μM peptides for 1 h then stimulated with TLR ligands for 4 h before plasma collection. Results are for at least 6 donors. The Wilcoxon matched-pairs signed rank test was used for statistical analysis between 2 groups in Prizm 8.2.1. In each graph, circles indicate whole blood pre-treated with water, squares indicate blood pre-treated with control peptide (average for treatment with Pen and C3-Pen), and triangles indicate pre-treatment with P7-Pen.
# To evaluate the effect of peptides in an ex vivo system, a human whole blood model was used. Peripheral venous blood was drawn from 6 healthy donors into sterile polypropylene tubes (Thermo Scientific™ Nunc™ Biobanking and Cell Culture Cryogenic Tubes) containing the anti-coagulant Lepirudin (Refludan®; Celgene). Peptide solutions were made by diluting peptide stocks in DPBS (Dulbecco's Phosphate Buffered Saline with MgCl2 and CaCl2; Sigma-Aldrich) to obtain a final concentration of 140 μM. Peptide solution or DPBS was distributed in equal volume (50 μL) to 1.8 mL sterile polypropylene tubes (Thermo Scientific™Nunc™ Biobanking and Cell Culture Cryogenic Tubes). 250 μL whole blood was then added to the 1.8 mL tubes containing peptide solution or DPBS, and incubated at 37° C. under constant rotation for 1 h (concentration of peptides for pre-incubation: 23.3 μM). […]
# TLR4 = test: Primary human macrophages stimulated with LPS: cytokine mRNA and p38 MAPK phosphorylation; assay type: cell-based; conditions: primary human macrophages (data not shown)
# Protocol: Primary human macrophages (PBMC derived, differentiated in media with 10% human serum and M-CSF 20 ng/ml, 7 days) were stimulated with K12 LPS (100 ng/ml), FSL-1 (100 ng/ml) or CL075 (3 μg/ml). […] (B) qPCR for mRNA expression of IFNβ, IL-6, TNF and IL-1β, average for three biological replicates, error bars ±SD.
# The effect of P7-Pen on TLR2-mediated pro-inflammatory cytokine expression was investigated.
# murine TLR7 = test: TLR7-mediated cytokine expression in murine macrophages (R848); assay type: cell-based, mouse; conditions: R848 (data not shown)
# From the text: Thus, P7-Pen interferes with signaling initiated by human TLR7 and TLR8, but has no effect on signaling via murine TLR7 (murine TLR8 is believed to be non-functional).
# [2] = tested on: THP-1 WT cells and THP-1 TRAM^CHERRY; test: Confocal analysis of bacterial bioparticle uptake by THP-1 cells; assay type: cell-based, human; conditions: 15 μM, 30 min pre-incubation
# Protocol: Cells were pre-incubated with Pen or P7-Pen peptides, followed by addition of Alexa Fluor 488-labeled bioparticles for the times indicated (15, 30 or 45 min). Fluorescent bacteria particles were counted by spot-detection in Bitplane Imaris imaging software and used to calculate the number of particles per cell. […] Pre-incubation with 3 μM cytochalasin D (CytoD, and inhibitor of actin polymerization) inhibited uptake of E. coli to a similar extent as P7-Pen.
# THP-1 cells, THP-1^cherry cells or human PBMC were seeded in 24-well glass-bottom plates (MatTek Corporation), 125,000 cells/well. The THP-1 cells were differentiated into macrophages with 60 ng/ml PMA for 72 h and thereafter rested for 48 h, whereas the PBMC were used the day after isolation. The P7-penatratin peptide or control peptide was added to the cells 30 min before stimulation at 15 μM concentration. If used, 3 μM cytochalasin D (CytoD) was added simultaneously. […] A spot detection mode in the Bitplan Imaris software was used to define individual phagosomes and cells were counted manually. […] Fluorescence voxel intensity of TRAM^cherry at the phagosome is also presented. Statistical significance was calculated in GraphPad Prism by One-way ANOVA Kruskal-Wallis multiple comparison test. […]
# THP-1 cells = test: LDH cytotoxicity assay in THP-1 cells; conditions: 1 h pre-treatment
# Protocol: For every assay, separate wells were seeded for the required controls (Spontaneous LDH Release Controls and Maximum LDH Release Control) with the same amount of cells as used for peptide treatments. All supernatants were analysed in triplicate with the average value of technical replicates taken into calculations.
# THP-1 cells were pre-treated with increasing concentrations of P7-Arg11 and control peptide Arg11 for 1 h (FIG. 3).
substance,measurement,setting,value
Ac-ITVAASVTLTGRQIKIWFQNRRMKWKK-NH2 [Peptide P7-A4-Pen],combination effect with melphalan at low melphalan concentrations,"[1]; ANBL-6, 5 μM peptide",synergistic effect
same,cytotoxic effect of combination with melphalan relative to peptide or melphalan alone,"[1]; ANBL-6, 5 μM peptide plus melphalan 8-20 μM, 48 h",much-enhanced cytotoxic effect
Ac-ITVYASVTLTGRQIKIWFQNRRMKWKK-NH2 [Peptide P7-Pen],S. aureus-mediated IFNβ secretion,S. aureus particles,significantly downregulated
same,"S. aureus-mediated TNF, IL-6 and IL-1β pro-inflammatory cytokine secretion",S. aureus particles,significantly decreased
same,"TLR4-mediated expression of TNF, IL-6 and IL-1β mRNA",TLR4,totally abrogated
same,TLR7-mediated cytokine expression,murine TLR7,no effect
same,uptake of S. aureus bioparticles,[2]; THP-1 TRAM^CHERRY,inhibited
same,uptake of E. coli particles,[2]; THP-1 WT and THP-1 TRAM^CHERRY,inhibited
Ac-ITVYASVTLTGRRRRRRRRRRR-NH2 [Peptide P7-Arg11],toxicity (LDH assay),THP-1 cells; 5 μM and 10 μM,essentially non-toxic
same,toxicity (LDH assay),THP-1 cells; 20 μM,increased toxicity

# Source: patent publication US20230220047A1, “PEPTIDES FOR TREATMENT OF SEPSIS AND CANCER” (NORWEGIAN UNIVERSITY OF SCIENCE AND TECHNOLOGY (NTNU), priority 2020, published 2023)
